{"source": "patent US9833424B2", "about": "“Application of fluoxetine to treatment of depigmentation diseases” (SHANDONG RUNZE PHARMACEUTICALS CO., LTD., priority 2011, dated 2017)", "key": {"C57BL/6 mice [1]": {"test_system": "C57BL/6 mice", "assay": "Western blotting of melanin synthesis proteins in skin hair follicles of C57BL/6 mice", "type": "in vivo, mouse", "conditions": "20 mg/kg gavage, 12th day"}, "[2]": {"test_system": "TYR activity in zebrafish", "assay": "TYR activity in PTU(35) group zebrafish", "type": "in vivo", "procedure": "The zebrafish depigmentation model were obtained by treating zebrafish embryos with 1-phenyl 2-thiourea (PTU). […] All data were expression for at least three experiments. ***P<0.001 vs control; ^#P<0.05, ^##P<0.01, ^###P<0.001 vs PTU (35 h) group. Data expressed as mean±SD (n=40)."}, "[3]": {"test_system": "tyrosinase activity of human primary melanocytes", "assay": "L-DOPA oxidation assay for tyrosinase activity of human primary melanocytes", "type": "cell-based"}, "[4]": {"test_system": "in vitro cultured normal human skin tissue", "assay": "Melanin content of in vitro cultured normal human skin tissue (NaOH cracking process)", "type": "cell-based", "conditions": "1 μM, 48 hours"}, "[5]": {"conditions": "in vivo; cited from earlier work"}, "[6]": {"test_system": "tyrosinase activity in normal human skin tissue", "assay": "Tyrosinase activity of in vitro cultured normal human skin tissue (L-DOPA)", "type": "cell-based", "conditions": "1-100 μM, 48 hours"}, "C57BL/6 mice [7]": {"test_system": "C57BL/6 mice", "assay": "Skin color on the back of hair-removed synchronized C57BL/6 mice after gavage", "type": "in vivo, mouse", "conditions": "20 mg/kg gavage once a day, 12th day, vs solvent control group"}, "[8]": {"test_system": "tyrosinase activity of B16F10 cells", "assay": "L-DOPA oxidation assay for measuring tyrosinase activity of B16F10 cells", "type": "cell-based, mouse"}, "B16F10 cells [9]": {"test_system": "B16F10 cells", "assay": "MTT assay for measuring cell proliferation rate of B16F10 cells", "type": "cell-based, mouse", "conditions": "0.1 to 10 μM"}, "C57BL/6 mice [10]": {"test_system": "C57BL/6 mice", "assay": "Immunohistochemistry of melanin synthesis proteins in hair follicle melanocytes of C57BL/6 mice", "type": "in vivo, mouse", "conditions": "20 mg/kg gavage, 12th day, immunohistochemical staining"}, "B16F10 cells [11]": {"test_system": "B16F10 cells", "assay": "Cell migration (wound healing test) and morphology, B16F10 cells", "conditions": "48 hours, 0.1-10 μM"}, "zebrafish embryos": {"test_system": "zebrafish embryos", "assay": "Melanogenesis in PTU-induced zebrafish depigmentation model", "type": "in vivo", "conditions": "even at 1.0 μM, hour 12 to hour 60 after fertilization; especially in skin and eyes", "procedure": "The zebrafish depigmentation model were obtained by treating zebrafish embryos with 1-phenyl 2-thiourea (PTU). […] Both embryos were treated in 0.2 mM (“M” stands for “mole/liter” throughout this disclosure) PTU to inhibit melanogenesis from after fertilization until the time their pictures were taken, i.e., at hour 35 and hour 60, respectively, i.e., the PTU(35) group and the PTU(60) group. […] Data expressed as mean±SD (n=40)."}, "B16F10 cells [12]": {"test_system": "B16F10 cells", "assay": "NaOH lysis method for determination of melanin content of B16F10 cells", "type": "cell-based, mouse"}, "[13]": {"test_system": "human primary melanocytes", "assay": "Western blotting of melanin synthesis proteins (MITF, TYR, TRP-1, TRP-2) in human primary melanocytes", "type": "cell-based", "conditions": "72 h, vs blank control"}, "A375 cells": {"test_system": "A375 cells", "assay": "Cell migration (wound healing test) and morphology, A375 cells", "conditions": "48 hours, 0.1-10 μM"}, "[14]": {"test_system": "normal human primary melanocytes", "assay": "MTT assay for measuring cell proliferation rate of human primary melanocytes", "type": "cell-based", "conditions": "72 hours"}, "[15]": {"test_system": "normal human melanocytes (NHMCs)", "assay": "Morphology of normal human melanocytes (NHMCs), phase-contrast microscopy", "type": "cell-based", "conditions": "0.1-10 μM, 5 days, with increases in dosage"}, "[16]": {"test_system": "human primary melanocytes", "assay": "NaOH lysis method for measuring melanin content of human primary melanocytes", "type": "cell-based"}, "B16F10 cells [17]": {"test_system": "B16F10 cells", "assay": "Western blotting of melanin synthesis proteins (MITF, TYR, TRP-1, TRP-2) in B16F10 cells", "type": "cell-based, mouse", "conditions": "72 h, vs blank control"}}}
{"compound": "CNCCC(Oc1ccc(C(F)(F)F)cc1)c1ccccc1", "note": "(centres unmarked) [fluoxetine, N-methyl-γ-[4-(trifluoromethyl)phenoxy] phenylpropylamine]", "values": [{"measurement": "expression of protein MITF in skin hair follicles", "setting": "C57BL/6 mice [1]", "result": "significantly improve"}, {"measurement": "expression of tyrosinase (TYR) in skin hair follicles", "setting": "C57BL/6 mice [1]", "result": "significantly improve"}, {"measurement": "expression of tyrosinase-related protein 1 (TRP-1) in skin hair follicles", "setting": "C57BL/6 mice [1]", "result": "significantly improve"}, {"measurement": "expression of tyrosinase-related protein 2 (TRP-2) in skin hair follicles", "setting": "C57BL/6 mice [1]", "result": "significantly improve"}, {"measurement": "TYR activity, dosage dependence", "setting": "[2]; PTU(35) group zebrafish, 10.0 μM compared with 1.0 μM", "result": "higher TRY activity than Flx(1.0 μM)"}, {"measurement": "TYR activity in the PTU(35) group zebrafish", "setting": "[2]; exposure for 48 hours (hour 12 to hour 60 after fertilization)", "result": "enhanced the TYR activity"}, {"measurement": "tyrosinase activity of human primary melanocytes", "setting": "[3]; 72 hours, vs blank control, P<0.01", "result": "significantly promoted"}, {"measurement": "enzyme activity increase rate compared with positive drug psoralen", "setting": "[3]; human primary melanocytes, fluoxetine at 5 μM and 10 μM", "result": "exceeded that of the positive drug psoralen"}, {"measurement": "melanogenesis (melanin content) in skin tissue", "setting": "[4]", "result": "stimulates melanogenesis"}, {"measurement": "drug excreted in the stool", "setting": "[5]", "result": 15, "unit": "%"}, {"measurement": "drug excreted in the urine", "setting": "[5]", "result": "about 80%"}, {"measurement": "activity of tyrosinase in skin tissue", "setting": "[6]", "result": "did not exhibit any change"}, {"measurement": "skin color in the hair-removed area of the skin", "setting": "C57BL/6 mice [7]", "result": "significantly darkened"}, {"measurement": "tyrosinase activity of B16F10 cells", "setting": "[8]; 72 hours, vs blank control, P<0.05 at 1 μM and 5 μM, P<0.01 at 10 μM", "result": "significantly promoted"}, {"measurement": "enzyme activity increase rate compared with positive drug psoralen", "setting": "[8]; B16F10 cells, fluoxetine in the highest concentration", "result": "close to that of the positive drug psoralen"}, {"measurement": "toxicity and carcinogenesis on B16F10 melanoma cells", "setting": "B16F10 cells [9]", "result": "low toxicity and low carcinogenesis"}, {"measurement": "effect on the growth of B16F10 cells (cell proliferation rate)", "setting": "B16F10 cells [9]; 72 hours, vs blank control, P>0.05", "result": "no significant effect"}, {"measurement": "expression of tyrosinase (TYR) in hair follicle melanocytes", "setting": "C57BL/6 mice [10]", "result": "significantly improve"}, {"measurement": "expression of tyrosinase-related protein 1 (TRP-1) in hair follicle melanocytes", "setting": "C57BL/6 mice [10]", "result": "significantly improve"}, {"measurement": "expression of tyrosinase-related protein 2 (TRP-2) in hair follicle melanocytes", "setting": "C57BL/6 mice [10]", "result": "significantly improve"}, {"measurement": "cell mobility", "setting": "B16F10 cells [11]", "result": "may increase the mobility"}, {"measurement": "melanogenesis in the PTU model zebrafish", "setting": "zebrafish embryos", "result": "increased melanogenesis"}, {"measurement": "melanin content of B16F10 cells", "setting": "B16F10 cells [12]; 1 to 10 μM, 72 hours, vs blank control, P<0.05 at 1 μM, P<0.01 at 5 μM and 10 μM", "result": "significantly increased"}, {"measurement": "melanin content increase rate compared with positive drug psoralen", "setting": "B16F10 cells [12]; B16F10 cells", "result": "exceeded that of the positive drug psoralen"}, {"measurement": "expression of protein MITF", "setting": "[13]", "result": "significantly improve"}, {"measurement": "expression of protein tyrosinase (TYR)", "setting": "[13]", "result": "significantly improve"}, {"measurement": "expression of tyrosinase-related protein 1 (TRP-1)", "setting": "[13]", "result": "significantly improve"}, {"measurement": "protein level of tyrosinase-related protein 2 (TRP-2)", "setting": "[13]", "result": "not significantly affected"}, {"measurement": "cell mobility", "setting": "A375 cells", "result": "may increase the mobility"}, {"measurement": "toxicity on human primary melanocytes", "setting": "[14]", "result": "relatively low toxicity"}, {"measurement": "effect on the growth of normal human primary melanocytes", "setting": "[14]; vs blank control, P>0.05", "result": "no significant effect"}, {"measurement": "dendritic morphology of NHMCs (number and length of dendrites)", "setting": "[15]", "result": "the number as well as the length of the primary dendritic melanocytes increase significantly"}, {"measurement": "melanin content of human primary melanocytes", "setting": "[16]; 72 hours, vs control group, P<0.01", "result": "significantly increased"}, {"measurement": "melanin content increase rate compared with positive drug psoralen", "setting": "[16]; human primary melanocytes", "result": "close to or exceeded that of the positive drug psoralen"}, {"measurement": "expression of protein MITF", "setting": "B16F10 cells [17]", "result": "significantly improve"}, {"measurement": "expression of protein tyrosinase (TYR)", "setting": "B16F10 cells [17]", "result": "significantly improve"}, {"measurement": "expression of tyrosinase-related protein 1 (TRP-1)", "setting": "B16F10 cells [17]", "result": "significantly improve"}, {"measurement": "protein level of tyrosinase-related protein 2 (TRP-2)", "setting": "B16F10 cells [17]", "result": "not significantly affected"}]}
